Measured values taken from ChEMBL document CHEMBL1147168, “Quinuclidines as selective agonists for alpha-7 nicotinic acetylcholine receptors” (Bioorg Med Chem Lett, 2007).

Target: Neuronal acetylcholine receptor subunit alpha-7 (Homo sapiens, UniProt P36544)
Assay: Agonist activity at nAChR alpha-7 expressed in Xenopus oocytes
Type: functional, cell-based, Oocyte

Chain of Neuronal acetylcholine receptor subunit alpha-7 (P36544 whole entry): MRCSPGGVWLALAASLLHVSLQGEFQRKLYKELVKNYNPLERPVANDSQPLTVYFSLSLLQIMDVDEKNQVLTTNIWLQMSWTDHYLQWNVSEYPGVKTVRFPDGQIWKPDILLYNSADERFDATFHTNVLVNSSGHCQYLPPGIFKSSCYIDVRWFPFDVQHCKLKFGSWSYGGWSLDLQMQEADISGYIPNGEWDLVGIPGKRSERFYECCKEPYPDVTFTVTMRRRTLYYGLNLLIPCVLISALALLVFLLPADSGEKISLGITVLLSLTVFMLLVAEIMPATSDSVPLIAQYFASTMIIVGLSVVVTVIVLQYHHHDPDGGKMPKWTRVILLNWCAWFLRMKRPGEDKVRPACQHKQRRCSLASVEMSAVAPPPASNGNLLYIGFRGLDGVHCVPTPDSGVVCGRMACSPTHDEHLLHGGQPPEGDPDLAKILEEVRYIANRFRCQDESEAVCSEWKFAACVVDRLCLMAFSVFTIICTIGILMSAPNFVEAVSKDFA

| SMILES | EC50 |
| --- | --- |
| COc1ccc(/C=C2/CN3CCC2CC3)cc1 | 1.3 µM |
| C(=C1\CN2CCC1CC2)/c1ccccc1 | 1.5 µM |
